# Where a name gives a salt, the structure may show the parent alone.
# Biological target: Proton Pump (H^+/K^+-ATPase) (Sus scrofa, UniProt P19156)
# Experiment: Inhibitory effects on proton pump (H^+/K^+-ATPase) activity
# Type: biochemical
# Details: hog gastric vesicles; K^+ stimulated H^+/K^+-ATPase activity; 30 minutes at 37° C.
# Chain of Proton Pump (H^+/K^+-ATPase) (P19156 2-1034 limits assumed): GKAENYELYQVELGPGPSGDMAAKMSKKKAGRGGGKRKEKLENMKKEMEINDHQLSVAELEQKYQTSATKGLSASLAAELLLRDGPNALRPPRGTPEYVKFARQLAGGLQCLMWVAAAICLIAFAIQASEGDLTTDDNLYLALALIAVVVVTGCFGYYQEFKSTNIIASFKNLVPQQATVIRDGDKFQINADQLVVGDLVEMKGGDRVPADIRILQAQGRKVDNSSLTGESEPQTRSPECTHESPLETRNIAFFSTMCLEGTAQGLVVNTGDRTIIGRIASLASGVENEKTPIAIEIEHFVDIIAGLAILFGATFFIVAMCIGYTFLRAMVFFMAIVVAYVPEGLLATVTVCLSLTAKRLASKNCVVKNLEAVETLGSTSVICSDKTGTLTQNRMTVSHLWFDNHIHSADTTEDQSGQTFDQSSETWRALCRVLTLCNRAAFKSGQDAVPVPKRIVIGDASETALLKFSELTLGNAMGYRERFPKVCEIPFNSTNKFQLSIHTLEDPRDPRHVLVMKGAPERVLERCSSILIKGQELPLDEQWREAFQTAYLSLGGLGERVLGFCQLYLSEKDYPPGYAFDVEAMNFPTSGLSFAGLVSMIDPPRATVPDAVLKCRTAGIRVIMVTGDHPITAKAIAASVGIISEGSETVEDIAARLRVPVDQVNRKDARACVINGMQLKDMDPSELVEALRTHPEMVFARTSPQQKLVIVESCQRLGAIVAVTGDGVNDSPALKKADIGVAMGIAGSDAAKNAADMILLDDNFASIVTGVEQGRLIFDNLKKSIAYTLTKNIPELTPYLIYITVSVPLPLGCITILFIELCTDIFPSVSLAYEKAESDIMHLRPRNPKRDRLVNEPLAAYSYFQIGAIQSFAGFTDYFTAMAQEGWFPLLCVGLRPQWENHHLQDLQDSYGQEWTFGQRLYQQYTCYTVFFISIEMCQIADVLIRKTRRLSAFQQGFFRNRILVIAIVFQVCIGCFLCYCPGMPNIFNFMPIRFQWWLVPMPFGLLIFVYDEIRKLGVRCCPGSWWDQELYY
# Chain of Proton Pump (H^+/K^+-ATPase) (P18434 whole entry partner): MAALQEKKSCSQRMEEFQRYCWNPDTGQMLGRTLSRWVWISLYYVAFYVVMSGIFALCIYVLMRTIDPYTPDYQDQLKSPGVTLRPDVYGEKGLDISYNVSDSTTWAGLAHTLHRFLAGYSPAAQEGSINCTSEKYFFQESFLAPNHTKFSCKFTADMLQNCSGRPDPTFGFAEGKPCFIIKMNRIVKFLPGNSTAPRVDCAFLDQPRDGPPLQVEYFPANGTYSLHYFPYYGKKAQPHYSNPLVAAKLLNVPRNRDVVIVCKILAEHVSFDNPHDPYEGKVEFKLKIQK
row,SMILES,IC50 [nM]
1,"Cc1c(C)n(Cc2cccc(F)c2)c2c(CN(C)c3ccc(F)cc3)nccc12 [Example 114, N-[1-(3-fluorobenzyl)-2,3-dimethyl-1H-pyrrolo[2,3-c]pyridin-7-ylmethyl]-N-(4-fluorophenyl)-methylamine hydrochloride]",27
2,"Cc1c(C)n(Cc2cccc(F)c2)c2c(N3CCc4ccccc4C3)nc(C(C)O)cc12 (centres unmarked) [Example 860, 1-[7-(3,4-dihydro-1H-isoquinolin-2-yl)-1-(3-fluorobenzyl)-2,3-dimethyl-1H-pyrrolo[2,3-c]pyridin-5-yl]-ethanol hydrochloride]",313
3,"CCn1nnnc1-c1cc2c(C)c(C)n(Cc3cccc(Cl)c3)c2c(N2CCc3ccccc3C2)n1 [Example 854, 2-[1-(3-chlorobenzyl)-2,3-dimethyl-5-(1-ethyl-1H-tetrazol-5-yl)-1H-pyrrolo[2,3-c]pyridin-7-yl]-1,2,3,4-tetrahydroisoquinoline]",282
4,"CCC1c2ccccc2CCN1c1nccc2c(C)c(C)[nH]c12 (centres unmarked) [Example 574, 2-(2,3-dimethyl-1H-pyrrolo[2,3-c]pyridin-7-yl)-1-ethyl-1,2,3,4-tetrahydroisoquinoline hydrochloride]",420
5,"COCCn1c(C)c(C)c2ccnc(N3CCc4ccc(F)cc4C3C)c21 (centres unmarked) [Example 546, 7-fluoro-2-[1-(2-methoxyethyl)-2,3-dimethyl-1H-pyrrolo[2,3-c]pyridin-7-yl]-1-methyl-1,2,3,4-tetrahydroisoquinoline hydrochloride]",250
6,"Cc1c(C)n(CC2CC2)c2c(NCc3ccccc3)nccc12 [Example 185, 7-benzylamino-1-cyclopropylmethyl-2,3-dimethyl-1H-pyrrolo[2,3-c]pyridine hydrochloride]",320
7,"C=CCn1c(C)c(C)c2cc(N)nc(N3CCc4ccccc4C3)c21 [Example 846, 1-allyl-7-(3,4-dihydro-1H-isoquinolin-2-yl)-2,3-dimethyl-1H-pyrrolo[2,3-c]pyridin-5-amine hydrochloride]",139
8,"CCn1c(C)c(C)c2cc(C(=O)N3CCC(CCO)CC3)nc(N3CCc4ccccc4C3)c21 [Example 804, [7-(3,4-dihydro-1H-isoquinolin-2-yl)-1-ethyl-2,3-dimethyl-1H-pyrrolo[2,3-c]pyridin-5-yl]-[4-(2-hydroxyethyl)-piperidin-1-yl]-methanone hydrochloride]",36
9,"CCn1c(C)c(C)c2cc(C(=O)N3CCCC(O)C3)nc(N3CCc4ccccc4C3)c21 (centres unmarked) [Example 807, [7-(3,4-dihydro-1H-isoquinolin-2-yl)-1-ethyl-2,3-dimethyl-1H-pyrrolo[2,3-c]pyridin-5-yl]-(3-hydroxypiperidin-1-yl)-methanone hydrochloride]",23
10,"CCCn1c(C)c(C)c2cc(C(=O)N3CCN(C)CC3)nc(N3CCc4ccccc4C3)c21 [Example 825, [7-(3,4-dihydro-1H-isoquinolin-2-yl)-2,3-dimethyl-1-propyl-1H-pyrrolo[2,3-c]pyridin-5-yl]-(4-methylpiperazin-1-yl)-methanone hydrochloride]",24
11,"CCCn1c(C)c(C)c2ccnc(N(C)Cc3ccc(F)cc3)c21 [Example 150, 7-[N-(4-fluorobenzyl)-N-methyl]amino-2,3-dimethyl-1-propyl-1H-pyrrolo[2,3-c]pyridine hydrochloride]",340
12,"Cc1c(C)n(Cc2ccc(F)cc2)c2c(N3CCc4ccccc4C3)nccc12 [Example 471, 1-(4-fluorobenzyl)-7-(1,2,3,4-tetrahydroisoquinolin-2-yl)-2,3-dimethyl-1H-pyrrolo[2,3-c]pyridine hydrochloride]",230
13,"Cc1cc2ccnc(N3CCc4ccccc4C3)c2n1Cc1cccc(F)c1 [Example 613, 2-[1-(3-fluorobenzyl)-2-methyl-1H-pyrrolo[2,3-c]pyridin-7-yl]-1,2,3,4-tetrahydroisoquinoline hydrochloride]",375
14,"C=CCn1c(C)c(C)c2cc(C(=O)N3CCOCC3)nc(N3CCc4ccccc4C3)c21 [Example 777, [1-allyl-7-(3,4-dihydro-1H-isoquinolin-2-yl)-2,3-dimethyl-1H-pyrrolo[2,3-c]pyridin-5-yl]-(morpholin-4-yl)-methanone hydrochloride]",1.6
15,"COc1cccc(Cn2c(C)c(C)c3cc(C(=O)n4ccnc4)nc(N4CCc5ccccc5C4)c32)c1 [Example 841, [7-(3,4-dihydro-1H-isoquinolin-2-yl)-1-(3-methoxybenzyl)-2,3-dimethyl-1H-pyrrolo[2,3-c]pyridin-5-yl]-(imidazol-1-yl)-methanone hydrochloride]",242
16,"CCc1[nH]c2c(N3CCc4ccccc4C3)nccc2c1C [Example 591, 2-ethyl-3-methyl-7-(1,2,3,4-tetrahydroisoquinolin-2-yl)-1H-pyrrolo[2,3-c]pyridine]",499
17,"Cc1c(C)n(Cc2cccc(Cl)c2)c2c(N3CCc4ccccc4C3)nc(C(=O)O)cc12 [Example 735, 1-(3-chlorobenzyl)-7-(3,4-dihydro-1H-isoquinolin-2-yl)-2,3-dimethyl-1H-pyrrolo[2,3-c]pyridin-5-carboxylic acid]",54
18,"C=CCn1c(C)c(C)c2ccnc(N3CCc4ccccc4C3)c21 [Example 485, 1-allyl-7-(1,2,3,4-tetrahydroisoquinolin-2-yl)-2,3-dimethyl-1H-pyrrolo[2,3-c]pyridine citrate]",6

row,SMILES,IC50 [nM]
1,"Cc1c(C)n(CC2CCC2)c2c(N3CCc4ccccc4C3)nc(C(=O)N3CCN(C)CC3)cc12 [Example 830, [1-cyclobutylmethyl-7-(3,4-dihydro-1H-isoquinolin-2-yl)-2,3-dimethyl-1H-pyrrolo[2,3-c]pyridin-5-yl]-(4-methylpiperazin-1-yl)-methanone hydrochloride]",44
2,"CCC1c2ccccc2CCN1c1nccc2c(C)c(C)n(C)c12 (centres unmarked) [Example 575, 1-ethyl-2-(1,2,3-trimethyl-1H-pyrrolo[2,3-c]pyridin-7-yl)-1,2,3,4-tetrahydroisoquinoline hydrochloride]",470
3,"C=CCn1c(C)c(C)c2ccnc(CCc3ccccc3)c21 [Example 448, 1-allyl-2,3-dimethyl-7-phenethyl-1H-pyrrolo[2,3-c]pyridine hydrochloride]",230
4,"C#CCn1c(C)c(C)c2ccnc(-c3ccc(C=C)cc3)c21 [Example 249, 2,3-dimethyl-1-(prop-2-ynyl)-7-(4-vinylphenyl)-1H-pyrrolo[2,3-c]pyridine hydrochloride]",50
5,"CCNCc1cc2c(C)c(C)n(Cc3cccc(F)c3)c2c(N2CCc3ccccc3C2)n1 [Example 868, N-[7-(3,4-dihydro-1H-isoquinolin-2-yl)-1-(3-fluorobenzyl)-2,3-dimethyl-1H-pyrrolo[2,3-c]pyridin-5-ylmethyl]-ethylamine hydrochloride]",39
6,"C=CCn1c(C)c(C)c2cc(C(=O)NCc3cccc(Cl)c3)nc(N3CCc4ccccc4C3)c21 [Example 758, 1-allyl-7-(3,4-dihydro-1H-isoquinolin-2-yl)-2,3-dimethyl-N-(3-chlorobenzyl)-1H-pyrrolo[2,3-c]pyridin-5-carboxamide hydrochloride]",316
7,"COc1cccc(Cn2c(C)c(C)c3ccnc(CN(C)c4ccc(F)cc4)c32)c1 [Example 116, N-(4-fluorophenyl)-N-[1-(3-methoxybenzyl)-2,3-dimethyl-1H-pyrrolo[2,3-c]pyridin-7-ylmethyl]-methylamine hydrochloride]",48
8,"Cc1c(C)n(CC2CC2)c2c(N(C)Cc3ccc(F)cc3)nccc12 [Example 144, 1-cyclopropylmethyl-7-[N-(4-fluorobenzyl)-N-methyl]amino-2,3-dimethyl-1H-pyrrolo[2,3-c]pyridine hydrochloride]",200
9,"C=Cc1ccc(-c2nccc3c(C)c(C)n(Cc4ccc(C)cc4)c23)cc1 [Example 244, 2,3-dimethyl-1-(4-methylbenzyl)-7-(4-vinylphenyl)-1H-pyrrolo[2,3-c]pyridine hydrochloride]",90
10,"Cc1c(C)n(Cc2ccc(C(F)(F)F)cc2)c2c(N3CCc4ccccc4C3)nccc12 [Example 500, 7-(1,2,3,4-tetrahydroisoquinolin-2-yl)-1-(4-trifluoromethylbenzyl)-2,3-dimethyl-1H-pyrrolo[2,3-c]pyridine hydrochloride]",270
11,"CSc1ccc(-c2nccc3c(C)c(C)n(Cc4ccccc4F)c23)cc1 [Example 275, 2,3-dimethyl-1-(2-fluorobenzyl)-7-(4-methylsulfanylphenyl)-1H-pyrrolo[2,3-c]pyridine hydrochloride]",360
12,"Cc1nc(Cn2c(C)c(C)c3ccnc(N4CCc5ccccc5C4C)c32)cs1 (centres unmarked) [Example 559, 2-[2,3-dimethyl-1-(2-methylthiazol-4-ylmethyl)-1H-pyrrolo[2,3-c]pyridin-7-yl]-1-methyl-1,2,3,4-tetrahydroisoquinoline hydrochloride]",159
13,"CCC1c2ccccc2CCN1c1nccc2c(C)c(C)n(CC)c12 (centres unmarked) [Example 576, 1-ethyl-2-(1-ethyl-2,3-dimethyl-1H-pyrrolo[2,3-c]pyridin-7-yl)-1,2,3,4-tetrahydroisoquinoline hydrochloride]",220
14,"C=Cc1ccc(-c2nccc3c(C)c(C)n(CC)c23)cc1 [Example 251, 1-ethyl-2,3-dimethyl-7-(4-vinylphenyl)-1H-pyrrolo[2,3-c]pyridine hydrochloride]",460
15,"C=CCn1c(C)c(C)c2ccnc(C=Cc3ccccc3)c21 [Example 416, 1-allyl-2,3-dimethyl-7-styryl-1H-pyrrolo[2,3-c]pyridine hydrochloride]",120
16,"C=Cc1ccc(-c2nccc3c(C)c(C)n(CCC(C)C)c23)cc1 [Example 256, 2,3-dimethyl-1-(3-methylbutyl)-7-(4-vinylphenyl)-1H-pyrrolo[2,3-c]pyridine hydrochloride]",310
17,"Cc1c(C)n(Cc2ccccc2F)c2c(CCc3ccccc3)nccc12 [Example 450, 1-(2-fluorobenzyl)-2,3-dimethyl-7-phenethyl-1H-pyrrolo[2,3-c]pyridine hydrochloride]",270
